According to patent US20070128201A1, “Combined use of ecteinascidin-743 and platinum antineoplastic compounds” (Pharma Mar, S.A.U., priority 2003, published 2007):
Like-named read-outs stand apart in the source and are kept apart here.

Columns and labels:
[1] = system: HOC 8 human ovarian xenograft; test: Survival of mice bearing intraperitoneal HOC 8 xenograft; format: in vivo
Source text: In ovarian carcinoma patients the tumor spreads into the peritoneal cavity. Therefore to mimic clinical disease we have selected a human ovarian xenograft, HOC 8, which was transplanted intraperitoneally from ascites and disseminated in the peritoneal cavity.
When the two drugs were combined the effect was much greater than that of each drug given as single agent with a dramatic increase in survival. […] Three animals were still alive after 12 months, two of them belonging to the group receiving the high ET-743 dose. They were sacrificed and a detailed macroscopic and microscopic pathological evaluation was performed. The mouse belonging to the group receiving the low ET-743 dose was apparently cured as the microscopic analysis of liver, splen, pancreas, bone marrow, diagram, ovary uterus omentum and several lymphnodes were negative.

[2] = Toxicity (body weight loss, toxic deaths) of split dose Q4×3; format: in vivo; conditions: Q4×3, 1A9 xenograft experiment
[3] = format: in vivo, human; conditions: ET-743 with carboplatin at a fixed target (300 mg/m^2), cycle 1 data from 11 patients
Method: We designed a multicenter dose finding trial, on a day 1 every 3 weeks schedule, with carboplatin given at a fixed dose of 300 mg/m^2 as a 1 hour infusion followed by escalating doses of ET given as a 3 hours infusion with steroids and antiemetic prophylaxis.
11 patients were entered (6 with ovarian cancer, 1 with lung cancer, 4 with soft tissue sarcoma). Prior treatments of the patients were the following:
ET-743 doses levels were 500, 650 and 800 μg/m^2/day; 3-6 pts were treated per dose level according to toxicity.
The maximum tolerated dose (MTD) was defined as the highest dose level tested of the combination at which at least 2 patients experience a DLT in cycle 1. If one patient encountered drug-induced DLT during either cycle 1 or 2, up to a maximum of 6 patients could be treated at that level. If DLT was not observed in the additional patients, new patients could be treated at the next higher dose level.

[4] = system: human, murine and canine progenitor cells; conditions: cited from earlier work
[5] = Dose finding trial ET-743 day 1 & 8 followed by cisplatin: toxicity; format: in vivo, human
Method: We designed a multicenter dose finding trial, […], with escalating doses of ET given as a 3-hr infusion with steroids and antiemetic prophylaxis, followed 30 minutes later by 1 hr infusion cisplatin at a fixed dose of 40 mg/m^2, with 2 L NS hydration.
(§1) 36 patients were entered (15 with ovarian cancer, 6 with uterus cancer, 14 with soft tissue sarcoma, 1 with other tumor type). Prior treatments of the patients were the following:
ET-743 doses levels were 300, 400, 500, 600 and 700 μg/m^2/day; 3-6 were treated per dose level according to toxicity.
ET-743 escalation was uneventful until 500 μg/m^2; at 600 μg/m^2 patients were accrued in 2 separate risk cohort according to prior chemotherapy extent: low risk 1 regimen (LR); high risk ≧2 regimens (HR).

[6] = system: Ovary, STS gyn, Uterus tumors; test: Dose finding trial ET-743 day 1 & 8 followed by cisplatin: observed efficacy; format: in vivo, human
Method: We designed a multicenter dose finding trial, on a day 1 & 8 every 3 weeks schedule, with escalating doses of ET given as a 3-hr infusion with steroids and antiemetic prophylaxis, followed 30 minutes later by 1 hr infusion cisplatin at a fixed dose of 40 mg/m^2, with 2 L NS hydration.
as §1
The following table illustrates the observed efficacy: […]

[7] = Toxicity of single i.v. doses of ET-743, DDP and their combination in xenograft experiments; format: in vivo; conditions: drug alone
Method: For the administration of the drugs appropriate vehicles were injected, using the same schedule and route of injection as the drug therapies. […] In xenografts transplanted s.c. tumor growth was monitored and tumor weight (TW) was determined by measuring the tumor diameters with a Vernier caliper every 2-4 days and using the formula TW=d^2×D/2 (where d and D represent the shortest and the longest diameter respectively).

| Compound | ILS ([1]; DDP monotherapy) | mean body weight loss [2] | MTD [3] | sensitivity of hematopoietic progenitors [4] | MTD ([5]; ET-743 with cisplatin 40 mg/m^2, previously treated patients, day 1 & 8 every 4 weeks) | Recommended dose (RD) ([5]; human, in vivo) | TTP ([6]; patient: Ovary, prior carboplatin + taxol (NC), topotecan (PD), ET-743 400 μg/m^2 D 1&8 + cisplatin, Lung) | TTP ([6]; patient: Ovary, prior carboplatin + taxol (NE), paclitaxel (PD), ET-743 600 μg/m^2 D 1&8 + cisplatin, Pelvis, liver) | BEST RESP ([6]; patient: Ovary, prior carboplatin + taxol (PR), ET-743 600 μg/m^2 D 1&8 + cisplatin, Liver Abdomen) | TTP ([6]; patient: STS gyn, prior adriamycin/ifosfamide (AD), ET-743 700 μg/m^2 D 1&8 + cisplatin, Lung) | TTP ([6]; patient: STS-gyn, prior epirubicin + ifosfamide (AD), gemcitabine (PD), ET-743 500 μg/m^2 D 1&8 + cisplatin, Abdomen) | BEST RESP ([6]; patient: STS-gyn, prior epirubicin + ifosfamide (AD), gemcitabine (PD), ET-743 500 μg/m^2 D 1&8 + cisplatin, Abdomen, wrapped cell reads Radiological PR non measurable lesions) | TTP ([6]; patient: Uterus Colon, prior carboplatin (NE), taxol + epirubicin + cisplatin (CR), ET-743 400 μg/m^2 D 1&8 + cisplatin, Bone, Pelvis, Lung) | BEST RESP ([6]; patient: Uterus Colon, prior carboplatin (NE), taxol + epirubicin + cisplatin (CR), ET-743 400 μg/m^2 D 1&8 + cisplatin, Bone, Pelvis, Lung, wrapped cell reads Radiological PR non measurable lesions) | ILS ([1]; ET-743 0.15 mg/kg, Q4×3, monotherapy) | ILS ([1]; ET-743 0.05% (printed), Q4×3, monotherapy) | maximal single i.v. dose that caused no toxic death [7] |
| --- | --- | --- | --- | --- | --- | --- | --- | --- | --- | --- | --- | --- | --- | --- | --- | --- | --- |
| N.N.[Cl][Pt][Cl] [DDP, cis-diaminedichloroplatinum (II), reference compound] | 139% |  |  |  |  |  |  |  |  |  |  |  |  |  |  |  |  |
| COc1cc2c(cc1O)CCN[C@]21CS[C@@H]2c3c(OC(C)=O)c(C)c4c(c3[C@H](COC1=O)N1C2[C@H]2c3c(cc(C)c(OC)c3O)C[C@@H]([C@@H]1O)N2C)OCO4 (some centres unmarked) [ET-743, ecteinascidin-743] |  | 14% | 800 μg/m^2 | equal sensitivity of erythropoid and myeloid cells | 700 μg/m^2 | 500 μg/m^2 | 6 mos | 6+ mos | Unc PR | 3+ mos | 5+ mos | Radiological | 1 mos | Radiological | 23% | 21% | 0.2 mg/kg |
